Key:
PARP1 = PARP1 (Homo sapiens, UniProt P09874); assay: PARP1 chemiluminescent assay; type: biochemical; conditions: recombinant PARP1 enzyme activity, chemiluminescence
Description: (§1) Mix the solution of recombinant poly ADP ribotransferase 1 and 2 (PARP1 and PARP2) (40 ng enzyme/well) and the compounds to be tested, respectively. And then added to a 96-well plate coated with […] mixture, incubated at room temperature for 1 h. Then add 50 μL 0.3 ng/mL Streptavidin-HRP to each well. The plates were incubated for 30 minutes at room temperature. Finally, the plates were treated with streptavidin-HRP followed by addition of the ELISA ECL substrate to produce chemiluminescence that can then be measured using a chemiluminescence reader. The inhibition rate of the compound to PARP1/2 enzyme activity was calculated according to the following formula. [formula] IC50 value is obtained by fitting the s-shaped dose response curve equation by using XL Fit software. The curve equation is Y=100/(1+10^(log C−log IC50)), C is the compound concentration. Table 1 summarizes the inhibitory effects of compounds on PARP1 and PARP2 enzyme activity (IC50), wherein +++++ indicates IC50≤1 nM; ++++ indicates 1<IC50≤10 nM; +++ indicates 10 nM<IC50≤100 nM: ++ indicates 100 nM<IC50≤1 μM; + indicates IC50>1 μM.

PARP2 = PARP2 (Homo sapiens, UniProt Q9UGN5); assay: PARP2 chemiluminescent assay; type: biochemical; conditions: recombinant PARP2 enzyme activity, chemiluminescence
Chain of PARP2 (Q9UGN5 whole entry, species assumed): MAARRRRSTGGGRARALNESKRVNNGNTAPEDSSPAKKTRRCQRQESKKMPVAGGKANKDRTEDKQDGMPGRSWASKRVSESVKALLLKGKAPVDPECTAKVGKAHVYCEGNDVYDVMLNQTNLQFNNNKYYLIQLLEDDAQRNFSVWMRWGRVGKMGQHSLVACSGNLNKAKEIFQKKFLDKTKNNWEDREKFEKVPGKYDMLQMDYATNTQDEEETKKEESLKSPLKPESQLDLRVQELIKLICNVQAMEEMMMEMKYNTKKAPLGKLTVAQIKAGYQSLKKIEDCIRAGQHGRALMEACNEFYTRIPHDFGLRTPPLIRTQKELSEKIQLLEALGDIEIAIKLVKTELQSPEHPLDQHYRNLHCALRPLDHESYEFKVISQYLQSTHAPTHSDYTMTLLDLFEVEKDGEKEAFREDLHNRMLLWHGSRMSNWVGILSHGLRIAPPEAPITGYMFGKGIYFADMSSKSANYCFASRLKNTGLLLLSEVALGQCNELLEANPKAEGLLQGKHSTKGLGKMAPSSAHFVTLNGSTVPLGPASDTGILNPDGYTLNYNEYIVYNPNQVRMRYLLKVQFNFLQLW
Description: as §1

MDA-MB-436 cells = assay: Inhibition of proliferation of human breast cancer MDA-MB-436 cell line (CCK-8, 7 days); type: cell-based; conditions: Homo sapiens, 168 h, proliferation of MDA-MB-436, 7 days
How it was run: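 Cells seeded at 3000/well were treated next day with 8 serial doses (DMSO control) for 7 days at 37° C., 5% CO2, with compound medium changed on day four. CCK-8 was added for 4 hours and OD read as 450 nm minus 650 nm. IC50 came from a sigmoidal fit of survival relative to DMSO.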

Chain of PARP1 (P09874 whole entry): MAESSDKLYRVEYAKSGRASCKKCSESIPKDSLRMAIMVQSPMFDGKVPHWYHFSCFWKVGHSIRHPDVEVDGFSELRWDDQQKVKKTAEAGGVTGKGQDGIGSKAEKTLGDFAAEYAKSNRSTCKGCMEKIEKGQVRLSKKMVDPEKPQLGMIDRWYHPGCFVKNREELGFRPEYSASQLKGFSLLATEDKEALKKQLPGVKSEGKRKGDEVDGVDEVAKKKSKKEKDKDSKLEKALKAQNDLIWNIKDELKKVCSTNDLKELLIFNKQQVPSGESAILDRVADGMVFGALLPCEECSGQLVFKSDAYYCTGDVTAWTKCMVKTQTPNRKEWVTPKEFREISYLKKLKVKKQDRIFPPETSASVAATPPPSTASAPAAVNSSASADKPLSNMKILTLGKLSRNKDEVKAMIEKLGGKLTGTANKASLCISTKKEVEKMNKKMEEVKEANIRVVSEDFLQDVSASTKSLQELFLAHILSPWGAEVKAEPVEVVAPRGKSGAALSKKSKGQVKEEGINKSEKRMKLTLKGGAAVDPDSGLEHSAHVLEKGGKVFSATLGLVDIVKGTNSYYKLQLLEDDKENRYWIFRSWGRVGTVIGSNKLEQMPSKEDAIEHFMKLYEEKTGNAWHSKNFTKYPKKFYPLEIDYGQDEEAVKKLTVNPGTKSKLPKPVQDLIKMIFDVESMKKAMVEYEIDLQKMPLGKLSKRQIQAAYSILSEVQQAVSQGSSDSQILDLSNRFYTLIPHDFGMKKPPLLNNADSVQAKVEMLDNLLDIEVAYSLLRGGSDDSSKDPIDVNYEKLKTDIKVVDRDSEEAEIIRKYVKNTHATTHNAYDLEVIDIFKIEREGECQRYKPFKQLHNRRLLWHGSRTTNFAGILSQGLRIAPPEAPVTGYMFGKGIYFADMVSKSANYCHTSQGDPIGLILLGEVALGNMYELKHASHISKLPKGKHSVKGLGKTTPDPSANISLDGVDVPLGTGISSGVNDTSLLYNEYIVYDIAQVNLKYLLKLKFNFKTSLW

| IC50 (PARP1) [nM] | IC50 (PARP2) [nM] | IC50 (MDA-MB-436 cells) [nM] | SMILES |
| --- | --- | --- | --- |
| 1 to 10 | 100 to 1000 | > 1000 | CCn1c(=O)[nH]c2cc(CN3CCN(c4ccc(C(=O)NC)nn4)CC3)ccc2c1=O [Example 29, 6-(4-((3-ethyl-2,4-dioxo-1,2,3,4-tetrahydroquinazolin-7-yl)methyl)piperazin-1-yl)-N-methylpyridazine-3-carboxamide] |
| ≤ 1 | > 1000 | 100 to 1000 | CCc1nc(C(=O)NC)ccc1N1CCN(Cc2ccc3c(=O)n(CC)c(=O)[nH]c3c2)CC1 [Example 31, 5-(4-((3-ethyl-2,4-dioxo-1,2,3,4-tetrahydroquinazolin-7-yl)methyl)piperazin-1-yl)-6-ethyl-N-methylpicolinamide] |
| 1 to 10 | 100 to 1000 | 10 to 100 | CCn1c(=O)[nH]c2cc(CN3CCN(c4ccc(C(N)=O)nc4F)CC3)ccc2c1=O [Example 32, 5-(4-((3-ethyl-2,4-dioxo-1,2,3,4-tetrahydroquinazolin-7-yl)methyl)piperazin-1-yl)-6-fluoropicolinamide] |
| 1 to 10 | 100 to 1000 | 1 to 10 | CCNC(=O)c1ccc(N2CCN(Cc3ccc4c(=O)n(CC)c(=O)[nH]c4c3)CC2)c(F)n1 [Example 33, 5-(4-((3-ethyl-2,4-dioxo-1,2,3,4-tetrahydroquinazolin-7-yl)methyl)piperazin-1-yl)-6-fluoro-N-ethylpicolinamide] |
| 1 to 10 | 100 to 1000 | 10 to 100 | CCn1c(=O)[nH]c2cc(CN3CCN(c4ccc(C(=O)NC(C)C)nc4F)CC3)ccc2c1=O [Example 34, 5-(4-((3-ethyl-2,4-dioxo-1,2,3,4-tetrahydroquinazolin-7-yl)methyl)piperazin-1-yl)-6-fluoro-N-isopropylpicolinamide] |
| 1 to 10 | 100 to 1000 | 10 to 100 | CCn1c(=O)[nH]c2cc(CN3CCN(c4ccc(C(=O)NC)nc4Cl)CC3)cc(F)c2c1=O [Example 62, 6-chloro-5-(4-((3-ethyl-5-fluoro-2,4-dioxo-1,2,3,4-tetrahydroquinazolin-7-yl)methyl)piperazin-1-yl)-N-methylpicolinamide] |
| 1 to 10 | > 1000 | 10 to 100 | CCNC(=O)c1ccc(N2CCN(Cc3ccc4c(=O)n(CC)c(=O)[nH]c4c3)CC2)c(C)n1 [Example 84, N-ethyl-5-(4-((3-ethyl-2,4-dioxo-1,2,3,4-tetrahydroquinazolin-7-yl)methyl)piperazin-1-yl)-6-methylpicolinamide] |
| 1 to 10 | > 1000 | 10 to 100 | CCN1Cc2ccc(CN3CCN(c4ccc(C(=O)NC)nc4F)CC3)cc2NC1=O [Example 114, 5-(4-((3-ethyl-2-oxo-1,2,3,4-tetrahydroquinazolin-7-yl)methyl)piperazin-1-yl)-6-fluoro-N-methylpicolinamide] |
| 1 to 10 | > 1000 | 1 to 10 | CCN1Cc2ccc(CN3CCN(c4ccc(C(=O)NC)nc4Cl)CC3)cc2NC1=O [Example 115] |
| 1 to 10 | > 1000 | 10 to 100 | CCN1Cc2ccc(CN3CCN(c4ccc(C(=O)NC)nc4C)CC3)cc2NC1=O [Example 116] |

Second part, the compound before the results:

| SMILES | IC50 (PARP1) [nM] | IC50 (PARP2) [nM] | IC50 (MDA-MB-436 cells) [nM] |
| --- | --- | --- | --- |
| CCn1c(=O)[nH]c2cc(CN3CCN(c4ccc(C(=O)NC)cn4)CC3)ccc2c1=O [Example 28, 6-(4-((3-ethyl-2,4-dioxo-1,2,3,4-tetrahydroquinazolin-7-yl)methyl)piperazin-1-yl)-N-methylnicotinamide] | 1 to 10 | 100 to 1000 | > 1000 |
| CCn1c(=O)[nH]c2cc(CN3CCN(c4ncc(C(=O)NC)cn4)CC3)ccc2c1=O [Example 30, 2-(4-((3-ethyl-2,4-dioxo-1,2,3,4-tetrahydroquinazolin-7-yl)methyl)piperazin-1-yl)-N-methylpyrimidine-5-carboxamide] | 10 to 100 | 10 to 100 | > 1000 |
| CNC(=O)c1ccc(NC(=O)c2cccc(-c3ccc4c(=O)n(C)c(=O)[nH]c4c3)c2)cn1 [Example 40, 5-(3-(3-methyl-2,4-dioxo-1,2,3,4-tetrahydroquinazolin-7-yl)benzamido)N-methylpicolinamide] | 1 to 10 | > 1000 | > 1000 |
| CCn1c(=O)[nH]c2cc(-c3cccc(C(=O)Nc4ccc(C(=O)NC)nc4)c3)ccc2c1=O [Example 41, 5-(3-(3-ethyl-2,4-dioxo-1,2,3,4-tetrahydroquinazolin-7-yl)benzamido)-N-methylpicolinamide] | 1 to 10 | > 1000 | > 1000 |
| CNC(=O)c1ccc(NC(=O)c2cccc(-c3ccc4c(=O)n(C(C)C)c(=O)[nH]c4c3)c2)cn1 [Example 42, 5-(3-(3-isopropyl-2,4 dioxo-1,2,3,4-tetrahydroquinazolin-7-yl)benzamido)-N-methylpicolinamide] | 1 to 10 | > 1000 | > 1000 |
| CCCn1c(=O)[nH]c2cc(-c3cccc(C(=O)Nc4ccc(C(=O)NC)nc4)c3)ccc2c1=O [Example 47, 5-(3-(3-propyl-2,4-dioxo-1,2,3,4-tetrahydroquinazolin-7-yl)benzamido)-N-methylpicolinamide] | 10 to 100 | > 1000 | > 1000 |
| CCn1c(=O)[nH]c2cc(CN3CCN(c4ccc(C(=O)NC)nc4Cl)CC3)c(F)cc2c1=O [Example 61, 6-chloro-5-(4-((3-ethyl-6-fluoro-2,4-dioxo-1,2,3,4-tetrahydroquinazolin-7-yl)methyl)piperazin-1-yl)-N-methylpicolinamide] | 1 to 10 | > 1000 | 10 to 100 |
| CCn1c(=O)[nH]c2cc(CN3CCN(c4ccc(C(=O)NC)nc4Cl)CC3)cc(Cl)c2c1=O [Example 63, 6-chloro-5-(4-((5-chloro-3-ethyl-2,4-dioxo-1,2,3,4-tetrahydroquinazolin-7-yl)methyl)piperazin-1-yl)-N-methylpicolinamide] | 1 to 10 | 100 to 1000 | 1 to 10 |
| CCn1c(=O)[nH]c2cc(CN3CCN(c4ccc(C(=O)NC)nc4C)CC3)c(F)cc2c1=O [Example 67, 5-(4-((3-ethyl-6-fluoro-2,4-dioxo-1,2,3,4-tetrahydroquinazolin-7-yl)methyl)piperazin-1-yl)-N,6-dimethylpicolinamide] | 10 to 100 | > 1000 | 100 to 1000 |
| CCn1c(=O)[nH]c2cc(CN3CCN(c4ccc(C(=O)NC5CC5)nc4C)CC3)ccc2c1=O [Example 78, N-cyclopropyl-5-(4-((3-ethyl-2,4-dioxo-1,2,3,4-tetrahydroquinazolin-7-yl)methyl)piperazin-1-yl)-6-methylpicolinamide] | 1 to 10 | > 1000 | 10 to 100 |
| CCNC(=O)c1ccc(N2CCN(Cc3ccc4c(=O)n(CC)c(=O)[nH]c4c3)CC2)c(Cl)n1 [Example 83, 6-chloro-N-ethyl-5-(4-((3-ethyl-2,4-dioxo-1,2,3,4-tetrahydroquinazolin-7-yl)methyl)piperazin-1-yl)picolinamide] | 1 to 10 | 100 to 1000 | 10 to 100 |
| CCNC(=O)c1ccc(N2CCN(Cc3cc(F)c4c(=O)n(CC)c(=O)[nH]c4c3)CC2)c(Cl)n1 [Example 104, 6-chloro-N-ethyl-5-(4-((3-ethyl-5-fluoro-2,4-dioxo-1,2,3,4-tetrahydroquinazolin-7-yl)methyl)piperazin-1-yl)picolinamide] | 1 to 10 | > 1000 | 1 to 10 |

Source: patent US20240208969A1, “SUBSTITUTED FUSED BICYCLIC COMPOUNDS AS PARP INHIBITORS AND THE USE THEREOF” (IMPACT THERAPEUTICS (SHANGHAI), INC., priority 2021, published 2024)
